According to patent publication US7091346B1, “Purine derivatives and processes for their preparation” (Novartis AG, priority 1995, dated 2006):

Row | melting point | SMILES
1 | 152 °C | CCn1cnc2c(Nc3ccc(F)cc3)nc(NCCO)nc21 [Example 99, 9-ethyl-6-(4-fluoro-phenyl-amino)-2-(2-hydroxy-ethyl-amino)-9H-purine]
2 | 181 °C | COc1cccc(Nc2nc(NCCN)nc3c2ncn3C(C)C)c1 [Example 101, 2-(2-amino-ethyl-amino)-9-isopropyl-6-(3-methoxy-phenyl-amino)-9H-purine]
3 | 191 to 192 °C | CCn1cnc2c(Nc3ccc(C(F)(F)F)cc3)nc(NCCO)nc21 [Example 104, 9-Ethyl-2-(2-hydroxy-ethyl-amino)-6-(4-trifluoromethyl-phenyl-amino)-9H-purine]
4 | 202 °C | CCn1cnc2c(Nc3cc(C(F)(F)F)cc(C(F)(F)F)c3)nc(NCCO)nc21 [Example 105, 9-ethyl-2-(2-hydroxy-ethyl-amino)-6-(3,5-di-trifluoromethyl-phenyl-amino)-9H-purine]
5 | 194 °C | CCn1cnc2c(Nc3ccc(Cl)c(C(F)(F)F)c3)nc(NCCO)nc21 [Example 106, 6-(4-chloro-3-trifluoromethyl-phenyl-amino)-9-ethyl-2-(2-hydroxy-ethyl-amino)-9H-purine]
6 | 148 °C | CCn1cnc2c(Nc3ccc(NC(=O)OCc4ccccc4)cc3)nc(NCCO)nc21 [Example 107, 6-(4-benzyloxycarbonylamino-phenyl-amino)-9-ethyl-2-(2-hydroxy-ethyl-amino)-9H-purine]
7 | 210 °C | CCn1cnc2c(Nc3ccc(N)cc3)nc(NCCO)nc21 [Example 108, 6-(4-amino-phenyl-amino)-9-ethyl-2-(2-hydroxy-ethyl-amino)-9H-purine]
